# Assay results as given in ChEMBL document CHEMBL5308541, “MAIP: An Open-Source Tool to Enrich High-Throughput Screening Output and Identify Novel, Druglike Molecules with Antimalarial Activity” (ACS Med Chem Lett, 2023).
# Values joined by “and” are separate entries in the source; they are usually repeats but may differ in a detail not shown here. Identical values can stand only once.
# Key:
# Plasmodium falciparum [1] = assay: Hit confirmation in dose-response curve in NF54 nanoGlo assay, at 72h; format: functional, organism-based, Erythrocyte; design: timepoint 72 hour; settings: Plasmodium falciparum, NF54, Erythrocyte, 72 h
# Plasmodium falciparum [2] = assay: Hit confirmation in dose-response curve in NF54 pLDH assay, at 72h; format: functional, organism-based, Erythrocyte; design: timepoint 72 hour; settings: Plasmodium falciparum, NF54, Erythrocyte, 72 h
# Plasmodium falciparum [3] = assay: Hit confirmation in dose-response curve in NF54 nanoGlo assay, at 12h; format: functional, organism-based, Erythrocyte; design: timepoint 12 hour; settings: Plasmodium falciparum, NF54, Erythrocyte, 12 h
# Plasmodium falciparum [4] = assay: Re-testing in dose-response curve in 3D7 pLDH assay, at 72h; format: functional, organism-based, Erythrocyte; design: timepoint 72 hour
# Plasmodium falciparum [5] = assay: Hit confirmation in dose-response curve in Dd2 pLDH assay, at 72h; format: functional, organism-based, Erythrocyte; design: timepoint 72 hour; settings: Plasmodium falciparum, Dd2, Erythrocyte, 72 h
# [6] = Hit confirmation in dose-response curve in HepG2 cytotoxicity assay, at 72h; format: toxicity, cell-based, Homo sapiens; design: timepoint 72 hour; settings: human, HepG2 cells
# [7] = (§1) Re-testing in dose-response curve in HepG2 cytotoxicity assay, at 72h; format: toxicity, cell-based, Homo sapiens; design: timepoint 72 hour; settings: human, HepG2 cells
# HepG2 = assay: as §1; format: toxicity, cell-based, Homo sapiens; design: timepoint 72 hour; settings: hepg2
# Plasmodium falciparum [8] = assay: Re-testing in dose-response curve in Dd2 pLDH assay, at 72h; format: functional, organism-based, Erythrocyte; design: timepoint 72 hour
# [9] = Plasmodium falciparum, 3D7, Erythrocyte, 72 h
# [10] = Plasmodium falciparum, Dd2, Erythrocyte, 72 h
IC50 (Plasmodium falciparum [1]),IC50 (Plasmodium falciparum [2]),IC50 (Plasmodium falciparum [3]),IC50 (Plasmodium falciparum [4]; [9]),IC50 (Plasmodium falciparum [4]; erythrocyte),IC50 (Plasmodium falciparum [5]),IC50 (Plasmodium falciparum [8]; [10]),IC50 (Plasmodium falciparum [8]; erythrocyte),Structure (SMILES),IC50 at 72 h [6],IC50 at 72 h [7],IC50 (HepG2)
1410 nM,1200 nM,2450 nM,680 nM,750 nM and 903 nM,1230 nM,,,Cc1cnccc1N1CCCN(Cc2ccccc2OCCN2CCN(C)CC2)CC1,> 10000 nM,,
3240 nM,2630 nM,9120 nM,,1630 nM and 618 nM and 631 nM,1820 nM,1580 nM,1780 nM and 1600 nM,CC1(N2CCC2)CCC(NC[C@H]2CCN(Cc3ccccc3)C2)CC1 (some centres undefined),> 10000 nM,,
1200 nM,1200 nM,1410 nM,478 nM,~748 nM,1170 nM,,,Cc1ccc(-c2cccc3c(C(=O)NCCCN4CCC(N5CCCCC5)CC4)cc(C)nc23)cc1,5010 nM,4110 nM,3450 nM
812 nM,1320 nM,> 10000 nM,> 8330 nM,14800 nM and 12700 nM and 15900 nM,708 nM,,,CN(C)C1CCN(CCN[C@H]2CCc3ccc(F)cc32)CC1,> 10000 nM,> 25000 nM,
3090 nM,2950 nM,5890 nM,,,3020 nM,,,Cc1cccc(N2CCC(NCc3cc(C)cc(CN4CCN(C)CC4)c3C)CC2)c1,> 10000 nM,,

# More lines, now with the values behind:
Structure (SMILES),IC50 (Plasmodium falciparum [1]),IC50 (Plasmodium falciparum [2]),IC50 (Plasmodium falciparum [3]),IC50 (Plasmodium falciparum [4]; [9]),IC50 (Plasmodium falciparum [4]; erythrocyte),IC50 (Plasmodium falciparum [5]),IC50 (Plasmodium falciparum [8]; [10]),IC50 (Plasmodium falciparum [8]; erythrocyte),IC50 at 72 h [6],IC50 at 72 h [7],IC50 (HepG2)
COc1ccc2c(O)c(Br)c(C)nc2c1,759 nM,1480 nM,> 10000 nM,82.9 nM,90.8 nM,871 nM,,,> 10000 nM,21600 nM,21900 nM
Fc1ccc(-n2cc(CNCCC3CCN(c4ccncc4)CC3)cn2)cc1,1580 nM,1740 nM,3550 nM,391 nM,~385 nM,1290 nM,,,> 10000 nM,5110 nM,5840 nM
CN1CCN(CCCCNC2CC3CCC(C2)N3Cc2ccccc2)CC1 (centres undefined),3020 nM,3020 nM,> 10000 nM,,1080 nM,1830 nM,,,> 10000 nM,,22800 nM and > 8330 nM
O=C(NC1CCN(CCOc2ccc(Cl)cc2)CC1)c1c[nH]c2ccncc2c1=O,1120 nM,1410 nM,3160 nM,,606 nM and 883 nM,1450 nM,,,> 10000 nM,,
Cc1c(CN2CCC(O)(Cn3ccnc3)CC2)[nH]c2c(Cl)cccc12,1700 nM,1950 nM,2630 nM,,1650 nM and 1320 nM and 1380 nM,,,,> 10000 nM,,20300 nM
CN1CCC(Oc2ccc(NC(=O)c3cn4ccnc4s3)cn2)CC1,1290 nM,1580 nM,6920 nM,2130 nM,2340 nM and 1390 nM,933 nM,,,> 10000 nM,> 25000 nM,18700 nM
CCN1C[C@H](Nc2nc(C)nc3sccc23)[C@@H](OC)C1,933 nM,1000 nM,1290 nM,> 25000 nM,,741 nM,,,> 10000 nM,> 25000 nM,
Cc1cnccc1NCCNCc1ccc(OC(C)C)c(Cl)c1,1050 nM,1550 nM,9550 nM,434 nM,501 nM,977 nM,,,> 10000 nM,6650 nM,6940 nM
COc1ccc(-c2cncc(C(=O)NCC3CCN(CCN(C)C)CC3)c2)cc1,1700 nM,1380 nM,2950 nM,,,1380 nM,2300 nM,3110 nM,> 10000 nM,,
c1ccc(-c2ccnc(C3CCN(CC45CNCC4C5)CC3)n2)cc1 (centres undefined),1620 nM,1910 nM,2880 nM,714 nM,859 nM,1860 nM,,1590 nM,> 10000 nM,,
OC[C@H](CNCc1cc2ccc(F)cc2[nH]1)c1ccccc1Cl,2340 nM,3720 nM,3980 nM,,,3310 nM,,,> 10000 nM,,
